According to ChEMBL document CHEMBL5649166, “RIP3 induces apoptosis independent of pronecrotic kinase activity” (Mol Cell, 2014):

Assays:
[1] = biological target: T1, Receptor-interacting serine/threonine-protein kinase 3 (Homo sapiens, UniProt Q9Y572); experiment: Inhibition of recombinant human RIP3 kinase domain (1 to 328 residues) expressed in baculovirus expression system by fluorescence polarization assay
[2] = biological target: T1, Receptor-interacting serine/threonine-protein kinase 3; experiment: Inhibition of recombinant human RIP3 kinase activity by ADP-glo assay
[3] = tested on: SVEC4-10; experiment: Cytotoxicity against mouse SVEC4-10 cells assessed as induction of apoptosis at 3 to 10 uM incubated for 18 hrs by Cell Titer-Glo luminescent cell viability assay; type: toxicity, cell-based; conditions: svec4-10, 18 h, dose 3-10 µM
[4] = tested on: L929; experiment: Cytotoxicity against mouse L929 cells assessed as induction of apoptosis at 3 to 10 uM incubated for 18 hrs by Cell Titer-Glo luminescent cell viability assay; type: toxicity, cell-based; conditions: l929, 18 h, dose 3-10 µM
[5] = tested on: 3T3SA; experiment: Cytotoxicity against mouse 3T3SA cells assessed as induction of apoptosis at 3 to 10 uM incubated for 18 hrs by Cell Titer-Glo luminescent cell viability assay; type: toxicity, cell-based; conditions: dose 3-10 µM
[6] = tested on: MEF; experiment: Cytotoxicity against MEF cells assessed as induction of apoptosis at 3 to 10 uM incubated for 18 hrs by Cell Titer-Glo luminescent cell viability assay; type: toxicity, cell-based; conditions: mouse, dose 3-10 µM
[7] = tested on: SVEC4-10; experiment: Cytotoxicity against mouse SVEC4-10 cells assessed as induction of apoptosis at 10 uM incubated for 18 hrs in presence of zVAD by Cell Titer-Glo luminescent cell viability assay; type: toxicity, cell-based; conditions: svec4-10, 18 h
[8] = tested on: L929; experiment: Cytotoxicity against mouse L929 cells assessed as induction of apoptosis at 10 uM incubated for 18 hrs in presence of zVAD by Cell Titer-Glo luminescent cell viability assay; type: toxicity, cell-based; conditions: l929, 18 h
[9] = tested on: 3T3SA; experiment: Cytotoxicity against mouse 3T3SA cells assessed as induction of apoptosis at 10 uM incubated for 18 hrs in presence of zVAD by Cell Titer-Glo luminescent cell viability assay; type: toxicity, cell-based
[10] = tested on: MEF; experiment: Cytotoxicity against MEF cells assessed as induction of apoptosis at 10 uM incubated for 18 hrs in presence of zVAD by Cell Titer-Glo luminescent cell viability assay; type: toxicity, cell-based; conditions: mouse
[11] = biological target: T2, Activin receptor type-1B (Homo sapiens) (UniProt P36896); experiment: Residual activity of human ALK4/ACVR1B using casein as substrate at 1 uM in presence of 32P-ATP by Hotspot assay relative to control
T2 sequence (whole entry): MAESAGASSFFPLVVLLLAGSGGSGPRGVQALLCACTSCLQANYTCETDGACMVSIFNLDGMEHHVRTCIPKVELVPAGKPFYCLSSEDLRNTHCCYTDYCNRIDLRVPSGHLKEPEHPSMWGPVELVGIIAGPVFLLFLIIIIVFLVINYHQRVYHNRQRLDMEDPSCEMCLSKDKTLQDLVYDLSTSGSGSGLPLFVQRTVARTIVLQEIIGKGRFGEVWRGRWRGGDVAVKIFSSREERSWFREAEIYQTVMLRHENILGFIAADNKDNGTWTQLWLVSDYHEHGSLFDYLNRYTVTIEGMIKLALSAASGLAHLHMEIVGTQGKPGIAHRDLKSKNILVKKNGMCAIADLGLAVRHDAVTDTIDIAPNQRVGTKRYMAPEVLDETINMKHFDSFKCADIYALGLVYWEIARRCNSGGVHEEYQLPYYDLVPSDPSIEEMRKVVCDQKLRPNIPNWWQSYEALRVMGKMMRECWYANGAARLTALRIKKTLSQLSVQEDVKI

[12] = biological target: Activin receptor type-1-like (Homo sapiens) (UniProt P37023); experiment: Inhibition of human ALK1/ACVRL1 using casein as substrate at 1 uM in presence of 32P-ATP by Hotspot assay relative to control; values are per cent of control
[13] = biological target: Casein kinase I isoform delta (Homo sapiens) (UniProt P48730); experiment: Inhibition of human CK1d using KRRRAL[pS]VASLPGL as substrate at 1 uM in presence of 32P-ATP by Hotspot assay relative to control; values are per cent of control
[14] = biological target: Death-associated protein kinase 3 (Homo sapiens) (UniProt O43293); experiment: Inhibition of human ZIPK/DAPK3 using KKLNRTLSFAEPG as substrate at 1 uM in presence of 32P-ATP by Hotspot assay relative to control; values are per cent of control
[15] = tested on: NIH3T3; experiment: Induction of apoptosis in mouse NIH/3T3 cells expressing low level of […] at 1 to 10 uM incubated for 18 hrs by Cell Titer-Glo luminescent cell viability assay; type: toxicity, cell-based; conditions: nih3t3, 18 h, dose 1-10 µM
[16] = tested on: 3T3SA; experiment: Induction of apoptosis in mouse 3T3SA cells incubated for 18 hrs in presence of BHA by Cell Titer-Glo luminescent cell viability assay; type: toxicity, cell-based
[17] = tested on: 3T3SA; experiment: Induction of apoptosis in mouse 3T3SA cells transfected with RIP1 siRNA assessed as accumulation of cleaved caspase 3 incubated for 0.5 to 1.5 hrs by immunoblot analysis; type: toxicity, cell-based; conditions: time 0.5-1.5 hrs
[18] = tested on: 3T3SA; experiment: Induction of apoptosis in mouse 3T3SA cells transfected with RIP1 siRNA assessed as accumulation of cleaved caspase 8 incubated for 0.5 to 1.5 hrs by immunoblot analysis; type: toxicity, cell-based; conditions: time 0.5-1.5 hrs
[19] = tested on: MEF; experiment: Induction of apoptosis in RIP-/- MEF cells incubated for 18 hrs by Cell Titer-Glo luminescent cell viability assay; type: toxicity, cell-based; conditions: mouse
[20] = tested on: SVEC4-10; experiment: Induction of apoptosis in mouse SVEC4-10 cells transfected with M45mutRHIM incubated for 18 hrs by Cell Titer-Glo luminescent cell viability assay; type: toxicity, cell-based; conditions: svec4-10, 18 h
[21] = tested on: MEF; experiment: Induction of apoptosis in RIP3-/- MEF cells transfected with RIP3 K51A mutant incubated for 18 hrs by Cell Titer-Glo luminescent cell viability assay; type: toxicity, cell-based; conditions: mouse
[22] = tested on: 3T3SA; experiment: Induction of apoptosis in RIP3shRNA transfected mouse 3T3SA cells co-transfected with shRNA-resistant RIP3 D143N mutant pre-tranfected for 16 hrs followed by compound addition and measured after 18 hrs in presence of zVAD by Cell Titer-Glo luminescent cell viability assay; type: toxicity, cell-based
[23] = tested on: 3T3SA; experiment: Induction of apoptosis in RIP3shRNA transfected mouse 3T3SA cells co-transfected with shRNA-resistant RIP3 T257A mutant pre-tranfected for 16 hrs followed by compound addition and measured after 18 hrs in presence of zVAD by Cell Titer-Glo luminescent cell viability assay; type: toxicity, cell-based
[24] = tested on: 3T3SA; experiment: Induction of apoptosis in RIP3shRNA transfected mouse 3T3SA cells co-transfected with shRNA-resistant RIP3 mutRHIM pre-tranfected for 16 hrs followed by compound addition and measured after 18 hrs in presence of zVAD by Cell Titer-Glo luminescent cell viability assay; type: toxicity, cell-based
[25] = tested on: 3T3SA; experiment: Induction of apoptosis in vICA expression plasmid transfected mouse 3T3SA cells co-transfected with shRNA-resistant RIP3 mutRHIM incubated for 12 hrs by Cell Titer-Glo luminescent cell viability assay; type: toxicity, cell-based
[26] = biological target: Myosin-IIIb (Homo sapiens) (UniProt Q8WXR4); experiment: Inhibition of human MYO3b using myelin basic protein as substrate at 1 uM in presence of 32P-ATP by Hotspot assay relative to control; values are per cent of control
Myosin-IIIb (Homo sapiens), sequence (Q8WXR4 whole entry): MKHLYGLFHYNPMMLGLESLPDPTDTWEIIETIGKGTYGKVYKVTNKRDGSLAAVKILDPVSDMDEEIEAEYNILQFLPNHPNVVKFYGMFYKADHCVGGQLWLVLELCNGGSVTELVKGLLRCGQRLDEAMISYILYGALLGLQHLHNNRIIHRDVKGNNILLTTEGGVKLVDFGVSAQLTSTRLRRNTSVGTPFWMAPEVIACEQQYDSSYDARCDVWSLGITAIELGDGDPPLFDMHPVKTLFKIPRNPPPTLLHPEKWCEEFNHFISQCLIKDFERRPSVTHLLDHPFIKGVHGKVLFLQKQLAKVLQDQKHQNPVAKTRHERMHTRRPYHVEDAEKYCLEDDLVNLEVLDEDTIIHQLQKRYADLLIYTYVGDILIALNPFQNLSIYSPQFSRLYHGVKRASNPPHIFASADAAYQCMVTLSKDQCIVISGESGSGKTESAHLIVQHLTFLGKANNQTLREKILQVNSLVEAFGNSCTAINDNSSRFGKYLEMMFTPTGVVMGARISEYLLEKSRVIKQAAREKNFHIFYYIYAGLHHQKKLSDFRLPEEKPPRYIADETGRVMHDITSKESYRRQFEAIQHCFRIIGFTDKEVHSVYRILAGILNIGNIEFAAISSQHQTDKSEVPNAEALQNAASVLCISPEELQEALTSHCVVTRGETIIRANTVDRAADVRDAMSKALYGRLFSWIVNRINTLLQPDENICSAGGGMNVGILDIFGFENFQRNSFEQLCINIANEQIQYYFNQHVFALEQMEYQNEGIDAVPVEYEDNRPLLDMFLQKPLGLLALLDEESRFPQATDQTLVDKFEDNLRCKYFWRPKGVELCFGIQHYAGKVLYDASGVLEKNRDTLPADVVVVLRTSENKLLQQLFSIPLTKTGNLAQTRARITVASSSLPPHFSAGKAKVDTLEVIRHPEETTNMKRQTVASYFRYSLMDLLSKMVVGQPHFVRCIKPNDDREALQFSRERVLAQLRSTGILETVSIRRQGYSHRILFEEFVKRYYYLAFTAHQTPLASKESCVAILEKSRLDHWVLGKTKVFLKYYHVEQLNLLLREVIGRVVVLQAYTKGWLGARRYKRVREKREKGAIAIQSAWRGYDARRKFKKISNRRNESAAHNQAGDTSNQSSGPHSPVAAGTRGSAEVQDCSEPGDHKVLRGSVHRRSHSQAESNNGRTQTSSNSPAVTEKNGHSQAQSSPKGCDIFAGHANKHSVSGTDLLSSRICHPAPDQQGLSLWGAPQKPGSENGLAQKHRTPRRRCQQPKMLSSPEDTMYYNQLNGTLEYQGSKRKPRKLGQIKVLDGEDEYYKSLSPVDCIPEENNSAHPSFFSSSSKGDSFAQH

Death-associated protein kinase 3 (Homo sapiens), sequence (O43293 whole entry, looked up): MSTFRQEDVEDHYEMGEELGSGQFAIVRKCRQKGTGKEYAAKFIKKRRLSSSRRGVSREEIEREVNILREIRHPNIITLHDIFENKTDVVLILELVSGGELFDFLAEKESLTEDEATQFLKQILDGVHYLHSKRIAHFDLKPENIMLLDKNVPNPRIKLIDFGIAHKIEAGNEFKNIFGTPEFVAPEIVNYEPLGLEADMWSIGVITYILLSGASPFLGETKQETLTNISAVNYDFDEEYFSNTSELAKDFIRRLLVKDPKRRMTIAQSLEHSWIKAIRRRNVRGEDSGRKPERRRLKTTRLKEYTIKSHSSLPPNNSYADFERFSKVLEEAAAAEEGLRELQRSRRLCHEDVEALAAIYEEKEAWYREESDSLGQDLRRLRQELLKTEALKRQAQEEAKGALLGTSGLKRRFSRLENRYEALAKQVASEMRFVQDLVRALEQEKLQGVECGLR
T1 sequence (Q9Y572 whole entry, the tested form may be a part): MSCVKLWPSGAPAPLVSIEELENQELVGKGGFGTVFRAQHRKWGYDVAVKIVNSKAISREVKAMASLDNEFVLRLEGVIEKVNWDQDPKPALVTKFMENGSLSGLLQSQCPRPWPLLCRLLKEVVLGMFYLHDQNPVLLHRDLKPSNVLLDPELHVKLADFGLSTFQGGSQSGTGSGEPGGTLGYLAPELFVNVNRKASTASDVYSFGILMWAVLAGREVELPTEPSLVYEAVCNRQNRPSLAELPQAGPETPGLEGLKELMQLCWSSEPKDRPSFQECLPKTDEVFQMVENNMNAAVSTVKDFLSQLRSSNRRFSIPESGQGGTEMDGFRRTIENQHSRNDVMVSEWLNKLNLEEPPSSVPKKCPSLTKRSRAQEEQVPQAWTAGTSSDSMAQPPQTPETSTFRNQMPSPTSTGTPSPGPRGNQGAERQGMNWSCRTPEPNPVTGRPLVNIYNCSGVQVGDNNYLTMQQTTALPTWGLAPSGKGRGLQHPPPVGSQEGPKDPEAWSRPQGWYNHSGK
Casein kinase I isoform delta (Homo sapiens), sequence (P48730 whole entry, looked up, canonical isoform): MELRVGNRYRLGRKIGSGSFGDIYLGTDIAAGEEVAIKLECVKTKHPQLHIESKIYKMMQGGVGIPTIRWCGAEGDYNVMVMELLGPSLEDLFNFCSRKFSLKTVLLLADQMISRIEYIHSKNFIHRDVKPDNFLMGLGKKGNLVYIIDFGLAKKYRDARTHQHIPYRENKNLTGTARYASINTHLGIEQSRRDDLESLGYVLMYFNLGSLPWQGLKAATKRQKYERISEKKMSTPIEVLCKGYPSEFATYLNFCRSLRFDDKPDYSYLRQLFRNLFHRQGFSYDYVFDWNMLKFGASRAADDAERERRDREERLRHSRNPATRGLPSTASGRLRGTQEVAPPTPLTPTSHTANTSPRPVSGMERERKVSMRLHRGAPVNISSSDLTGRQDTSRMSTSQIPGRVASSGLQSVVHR
Activin receptor type-1-like (Homo sapiens), sequence (P37023 whole entry, canonical isoform): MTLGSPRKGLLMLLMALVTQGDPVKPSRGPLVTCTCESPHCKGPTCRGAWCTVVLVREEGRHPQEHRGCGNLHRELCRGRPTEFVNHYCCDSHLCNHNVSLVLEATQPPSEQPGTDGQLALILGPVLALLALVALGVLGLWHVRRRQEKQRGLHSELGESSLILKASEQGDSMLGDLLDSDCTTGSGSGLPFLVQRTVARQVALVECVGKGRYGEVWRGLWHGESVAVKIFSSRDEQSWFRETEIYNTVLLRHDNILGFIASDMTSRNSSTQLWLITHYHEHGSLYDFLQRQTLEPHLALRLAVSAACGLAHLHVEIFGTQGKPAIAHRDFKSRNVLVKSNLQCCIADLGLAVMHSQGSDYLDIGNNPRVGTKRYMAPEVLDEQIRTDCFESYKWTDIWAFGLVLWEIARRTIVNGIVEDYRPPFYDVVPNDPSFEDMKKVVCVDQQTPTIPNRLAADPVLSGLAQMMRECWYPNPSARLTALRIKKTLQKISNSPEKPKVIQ

| Compound | IC50 [1] [nM] | IC50 [2] [nM] | Activity [3] | Activity [4] | Activity [5] | Activity [6] | Activity [7] | Activity [8] | Activity [9] | Activity [10] | residual activity [11] [%] | residual activity [12] [%] | residual activity [13] [%] | residual activity [14] [%] | also measured |
| --- | --- | --- | --- | --- | --- | --- | --- | --- | --- | --- | --- | --- | --- | --- | --- |
| Cc1cc(-c2cnc(N)c3c(-c4ccc5scnc5c4)csc23)n(C)n1 | 8.6 | 6.5 | Toxic | Toxic | Toxic | Toxic | Non-Toxic | Non-Toxic | Non-Toxic | Non-Toxic | 96.8 | 93.9 | 84.6 | 91.3 | – |
| CC(C)S(=O)(=O)c1ccc2nccc(Nc3ccc4scnc4c3)c2c1 | – | – | Toxic | Toxic | Toxic | Toxic | Non-Toxic | Non-Toxic | Non-Toxic | Non-Toxic | 100 | 102 | 104 | 102 | Activity [15]: Non-Toxic; Activity [16]: Toxic; Activity [17]: Non-Toxic; Activity [18]: Non-Toxic; Activity [19]: Non-Toxic; Activity [20]: Toxic; Activity [21]: Toxic; Activity [22]: Non-Toxic; Activity [23]: Non-Toxic; Activity [24]: Non-Toxic; Activity [25]: Non-Toxic |
| CNC(=O)c1ccc2c(c1)ncn2-c1ccc(CC(=O)OC(C)(C)C)cc1 | 0.9 | 0.3 | – | – | – | – | – | – | – | – | 93.9 | 95.4 | 101 | 96.8 | residual activity [26]: 92.4% |
